These results are taken from US7973050B2, “Enantiomeric compounds with antibacterial activity” (Crestone, Inc., priority 2006, dated 2011).

≈ marks a conversion by molar mass, not a printed value. Where a name gives a salt, the structure may show the parent alone. Read-outs that look alike come from different tables or passages of the source.

Assay [1] deals with C. difficile. The assay can be described thus: MIC90 against C. difficile clinical isolates, agar dilution (CLSI). It counts as cell-based. Particulars: Clostridioides difficile, read-out: MIC90 against Clostridium difficile. A general note: In agar dilution, organisms are placed on agar that contains the substance at set levels.
The subject of assay [2] is C. difficile. Nature of the assay: C. difficile-infected hamster survival study. It counts as in vivo. How it is done:
Animal studies were performed to determine the efficacy of MetRS inhibitors for treating C. difficile-infections. The MetRS inhibitors tested were 5-[3-((R)-6,8-Dibromo-chroman-4-ylamino)-propylamino]-4H-thieno[3,2-b]pyridine-7-one (both racemic mixture and the R enantiomer) and 5-[3-((R)-8-Bromo-6-chloro-chroman-4-ylamino)-propylamino]-4H-thieno[3,2-b]pyridin-7-one. Also tested was 2-(3-{3,5-Dibromo-2-[2-(4-methyl-thiazol-5-yl)-ethoxy]-benzylamino}-propylamino)-1H-quinolin-4-one.
Results were compared to C. difficile-infected hamsters treated with the conventional antibiotic, vancomycin. Infected hamsters were treated with either a solution or suspension of a MetRS inhibitor at 5 to 50 mg/kg or vancomycin at 2.5, 5 or 25 mg/kg. There were eight hamsters per group with the final endpoint of the experiment being survival. Expired hamsters were examined for GI condition.

For assay [3], the target named is Clostridium difficile MetRS (Clostridioides difficile, UniProt Q181D9, C642S). Nature of the assay: C. difficile MetRS inhibition (tRNA charging SPA assay). The assay is classed as biochemical. How it is done:
Compounds of the present invention were assayed to determine their ability to inhibit MetRS. Assays were performed as follows:
Each reaction was started by adding 20 μl appropriately diluted pure enzyme (pre-incubated with inhibitor) to 25 μl reaction mix for 10 min at room temperature. The reaction is terminated by the addition of 150 μl 167 mM sodium citrate, pH 2.15 containing phosphodiesterase (PDE) SPA beads (0.833 mg/ml). The binding of the radiolabelled product to the bead brings the isotope into close enough proximity to allow radiation from the tritium to excite the scintillant within the bead. Any unbound radiolabel is not close enough to the scintillant to allow this energy transfer, so no signal is generated. Following termination of the reaction, plates are spun at 2500 rpm for 5 min in a Mistral 3000E plate centrifuge (or alternatively allowed to stand for 1 hour). The assay is conducted in 96-well Optiplates (Packard). Plates are counted on a TopCount. (Packard 96 well counter).
Mixed E. coli MRE 600 tRNA and ATP were purchased from Boehringer-Mannheim, L-[methyl-^3H]methionine and phosphodiesterase scintillation proximity (SPA) beads from Amersham Pharmacia Biotech and other reagents from Sigma.

In the next assay the test system is rat MetRS. Nature of the assay: Mammalian MetRS inhibition (selectivity). The assay is classed as biochemical. Particulars: mammalian enzyme.
Assay [4] relates to C. difficile clinical isolates (spore production). The assay can be described thus: C. difficile sporulation on agar with subMIC drug. The assay is classed as cell-based, Clostridium difficile. The note with it: 96 hours.
The mark [5] stands for this setting: agar dilution, clinical isolates, 24 hours at 35° C. anaerobic, range stated for the group.
The mark [6] stands for this setting: range stated for the group of listed examples, read-out: Ki, inhibition of Clostridium difficile MetRS.

Sequence of Clostridium difficile MetRS (Q181D9 2-645 C642S): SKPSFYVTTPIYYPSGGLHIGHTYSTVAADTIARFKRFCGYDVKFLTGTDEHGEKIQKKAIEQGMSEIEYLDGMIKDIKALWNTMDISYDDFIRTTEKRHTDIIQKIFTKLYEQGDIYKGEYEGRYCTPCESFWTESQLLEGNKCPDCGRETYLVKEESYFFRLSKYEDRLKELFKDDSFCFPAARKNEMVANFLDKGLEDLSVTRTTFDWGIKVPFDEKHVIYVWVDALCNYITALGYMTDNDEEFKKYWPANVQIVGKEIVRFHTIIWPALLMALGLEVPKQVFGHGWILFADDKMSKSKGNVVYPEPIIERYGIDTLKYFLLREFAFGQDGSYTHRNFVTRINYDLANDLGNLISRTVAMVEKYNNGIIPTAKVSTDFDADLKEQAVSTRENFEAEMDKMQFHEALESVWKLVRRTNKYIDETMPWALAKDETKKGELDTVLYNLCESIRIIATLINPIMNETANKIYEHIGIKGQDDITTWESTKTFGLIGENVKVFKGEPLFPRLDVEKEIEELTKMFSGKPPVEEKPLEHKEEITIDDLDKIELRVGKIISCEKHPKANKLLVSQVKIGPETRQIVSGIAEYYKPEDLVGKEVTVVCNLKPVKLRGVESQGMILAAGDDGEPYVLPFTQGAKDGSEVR

For the molecule `O=c1cc(NCCCN[C@@H]2CCOc3c(Br)cc(Br)cc32)[nH]c2ccsc12` (single isomer, unassigned) [Example 2, di-hydrochloride], the MIC90 (usually the lowest concentration that inhibits either 90% of growth or 90% of the strains tested, depending on the study) in the assay on C. difficile [1] (setting [5]) was in the range of 0.25 to 4 µg/mL. In the assay on C. difficile [2] (MetRS inhibitor at 5 to 50 mg/kg, solution or suspension), the “efficacy (survival) in infected hamsters, in words” value is given as “best efficacy”. Moreover, the inhibition constant (Ki) (as a rule, the dissociation constant of the complex between target and ligand, obtained from inhibition or displacement) in assay [3] is 15 to 25 pM. For the same molecule, in the assay with rat MetRS, the “inhibition of mammalian (rat) MetRS” value is reported as “no inhibition”. In assay [4] (all strains, 0.25×MIC), the “spores (ratio of spores to total cells) at 0.25×MIC” value is listed as less than 2%. Besides, the “spores (ratio of spores to total cells) at 0.5×MIC” value in assay [4] (all strains, 0.5×MIC) is less than 1%. The “effect on spore production, in words” value in assay [4] (subMIC concentrations) is recorded as “effective in preventing vegetative cells of C. difficile from forming spores”.
Consider `O=c1cc(NCCCN[C@H]2CCOc3c(Br)cc(Br)cc32)[nH]c2ccsc12` (single isomer, unassigned) [Example 3, di-hydrochloride], for which, in assay [3], the Ki was in the range of 24000 to 80000 pM.
Consider `O=c1cc(NCCCN[C@@H]2CCOc3c(Br)cc(Cl)cc32)[nH]c2ccsc12` (single isomer, unassigned) [Example 4, di-hydrochloride], for which the MIC90 in the assay on C. difficile [1] (24 h) lay in the range of 0.25 to 4 µg/mL. For the same molecule, the inhibition constant (Ki) in assay [3] fell in the range of 15 to 25 pM. Also, the “inhibition of mammalian (rat) MetRS” value in the assay on rat MetRS was “no inhibition”.
In the case of `O=c1cc(NCCCN[C@H]2CCOc3c(Br)cc(Cl)cc32)[nH]c2ccsc12` (single isomer, unassigned) [Example 5, di-hydrochloride], in assay [3], the Ki lay within 24000 to 80000 pM.
As for `O=c1cc(NCCCN[C@@H]2CCOc3c(Br)cc(Br)cc32)[nH]c2ccccc12` (single isomer, unassigned) [Example 6, di-hydrochloride], the MIC90 in the assay on C. difficile [1] (24 h) is 0.25 to 4 µg/mL. In assay [3], the Ki lay within 15 to 25 pM. The “inhibition of mammalian (rat) MetRS” value in the assay with rat MetRS is reported as “no inhibition”.
Take `O=c1cc(NCCCN[C@H]2CCOc3c(Br)cc(Br)cc32)[nH]c2ccccc12` (single isomer, unassigned) [Example 7, di-hydrochloride]: in assay [3], the inhibition constant Ki was 24000 to 80000 pM.
As to `O=c1cc(NCCCN[C@@H]2CCNc3c(Br)cc(Br)cc32)[nH]c2ccsc12` (single isomer, unassigned) [Example 8, tri-hydrochloride], the MIC90 in the assay with C. difficile [1] (24 h) lay within 0.25 to 4 µg/mL. In assay [3], the Ki lay in the range of 15 to 25 pM. Further, the “inhibition of mammalian (rat) MetRS” value in the assay on rat MetRS is on record as “no inhibition”.
In assay [3], `O=c1cc(NCCCN[C@H]2CCNc3c(Br)cc(Br)cc32)[nH]c2ccsc12` (single isomer, unassigned) [Example 9, tri-hydrochloride] yielded an inhibitory constant (Ki) of 24000 to 80000 pM.
In the case of `O=c1cc(NCCCN[C@@H]2CCCc3c(Br)cc(Br)cc32)[nH]c2ccsc12` [Example 10, 5-[3-((R)-5,7-Dibromo-1,2,3,4-tetrahydro-naphthalen-1-ylamino)-propylamino]-4H-thieno[3,2-b]pyridine-7-one], the MIC90 in the assay with C. difficile [1] (setting [5]) lay in the range of 0.25 to 4 µg/mL (≈ 0.489 to 7.82 µM). For the same molecule, the inhibitory constant (Ki) in assay [3] (setting [6]) was 15 to 25 pM. In addition, the “inhibition of mammalian (rat) MetRS” value in the assay with rat MetRS is reported as “no inhibition”.
The like results for `O=c1cc(NCCCN[C@@H]2COc3c(Br)cc(Br)cc32)[nH]c2ccsc12` [Example 11, 5-[3-((S)-5,7-Dibromo-2,3-dihydro-benzofuran-3-ylamino)-propylamino]-4H-thieno[3,2-b]pyridine-7-one] were, in that order, 0.25 to 4 µg/mL (≈ 0.501 to 8.01 µM), 15 to 25 pM and “no inhibition”.
Regarding `O=c1cc(NCCCN[C@H]2COc3c(Br)cc(Br)cc32)[nH]c2ccsc12` [Example 12, 5-[3-((R)-5,7-Dibromo-2,3-dihydro-benzofuran-3-ylamino)-propylamino]-4H-thieno[3,2-b]pyridine-7-one], in assay [3] (setting [6]), the Ki lay within 24000 to 80000 pM.
Regarding `Cc1ncc([N+](=O)[O-])n1CCO` [metronidazole, reference compound], the “spores after exposure to subMIC concentrations” value in assay [4] (all tested strains, subMIC) is given as “up to 100%”.
As to `CN[C@H](CC(C)C)C(=O)N[C@H]1C(=O)N[C@@H](CC(N)=O)C(=O)N[C@H]2C(=O)N[C@H]3C(=O)N[C@H](C(=O)N[C@H](C(=O)O)c4cc(O)cc(O)c4-c4cc3ccc4O)[C@H](O)c3ccc(c(Cl)c3)Oc3cc2cc(c3O[C@@H]2O[C@H](CO)[C@@H](O)[C@H](O)[C@H]2O[C@H]2C[C@](C)(N)[C@H](O)[C@H](C)O2)Oc2ccc(cc2Cl)[C@H]1O` [vancomycin, reference compound], the “survival on Day 28 (vancomycin comparator)” value in the assay with C. difficile [2] (C. difficile-infected hamsters, vancomycin at 2.5, 5 or 25 mg/kg) is 0-10%.
